Structures can show the parent of a compound that is named as a salt.

10 molecules from patent US6875761B2 (Eisai Co., Ltd., priority 1997, dated 2005) can be followed below.

The target of one data set is T1, serotonin 1A receptor (Rattus norvegicus, UniProt P19327).
T1 construct: To the receptor fraction of the hippocampus were added a test compound and 0.5 nM of [^3H]; 8-hydroxy-dipropylaminotetralin; from tissue; host or cells: rat hippocampus membrane fraction
T1 sequence (P19327 1-422): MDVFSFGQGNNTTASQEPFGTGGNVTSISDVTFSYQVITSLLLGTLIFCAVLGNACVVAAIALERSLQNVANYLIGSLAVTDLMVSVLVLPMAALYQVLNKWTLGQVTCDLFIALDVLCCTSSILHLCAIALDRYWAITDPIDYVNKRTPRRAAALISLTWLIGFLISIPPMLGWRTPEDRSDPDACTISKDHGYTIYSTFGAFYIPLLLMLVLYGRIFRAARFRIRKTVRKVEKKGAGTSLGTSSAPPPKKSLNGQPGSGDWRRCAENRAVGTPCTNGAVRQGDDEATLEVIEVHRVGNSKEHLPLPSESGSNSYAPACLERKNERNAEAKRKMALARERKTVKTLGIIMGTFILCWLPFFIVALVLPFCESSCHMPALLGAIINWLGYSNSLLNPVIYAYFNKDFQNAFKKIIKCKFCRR
Kind of data set: Binding test on [3H] 8-hydroxy-dipropylaminotetralin, hippocampus receptor fraction. Also noted: species or system SD rats. The note with it: rat hippocampus receptor fraction, 0.5 nM [3H] 8-OH-DPAT, room temperature 30 min; read-out: 5HT1.

Another data set concerns the target T2, serotonin 2 receptor (Rattus norvegicus, UniProt P14842).
T2 construct: To the receptor fraction of the cerebral cortex were added a test compound and 0.3 nM of [^3H] ketanserin; from tissue; host or cells: rat cerebral cortex membrane fraction
Kind of data set: Binding test on [3H] ketanserin, cerebral cortex receptor fraction. Also noted: species or system SD rats. The note with it: 0.3 nM [3H] ketanserin, 37° C. 15 min, read-out: 5HT2.

In a further data set the target is α1 adrenalin receptor. The experiment in a line: Binding test on [3H] prazosin, cerebral cortex receptor fraction. Further details: species or system SD rats. The note with it: rat cerebral cortex receptor fraction, about 0.2 nM [3H] prazosin, room temperature 60 min; read-out: α 1.

T2 sequence (P14842 whole entry): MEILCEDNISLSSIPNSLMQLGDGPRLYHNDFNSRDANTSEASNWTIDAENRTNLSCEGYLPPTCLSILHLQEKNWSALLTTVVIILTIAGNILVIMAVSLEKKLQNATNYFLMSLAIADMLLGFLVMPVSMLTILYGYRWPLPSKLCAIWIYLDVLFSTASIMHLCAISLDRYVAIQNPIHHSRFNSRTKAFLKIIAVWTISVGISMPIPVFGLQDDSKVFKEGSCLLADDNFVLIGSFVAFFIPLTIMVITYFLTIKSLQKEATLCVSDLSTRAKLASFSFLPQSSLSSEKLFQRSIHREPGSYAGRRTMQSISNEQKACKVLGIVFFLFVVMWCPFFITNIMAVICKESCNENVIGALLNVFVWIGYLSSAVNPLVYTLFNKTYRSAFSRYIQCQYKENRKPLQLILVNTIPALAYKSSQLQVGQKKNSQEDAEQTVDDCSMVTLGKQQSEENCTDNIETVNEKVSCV
Method for α1 adrenalin receptor: As radioisotope-labeled compounds, use was made of the following reagents (mfd. by NEN). • 3) [^3H] […] Prazosin.
Use was made of SD rats aged 6 to 8 weeks.
The rats were sacrificed by dcapitation to extirpate the cerebra.
Each mixture was homogenized by using a Teflon glass homogenizer and centrifuged as 1,000× g for 10 min. The supernatant thus obtained was further centrifuged at 20,000× g for 20 min. […] After centrifuging at 20,000× g for 20 min, the obtained precipitate was further suspended and centrifuged twice each in the same manner. […] This receptor fraction was stored at −80° C. until using.
IC50 was calculated by the probit method, while Ki was determined in accordance with the following formula: Ki=IC50(1+c/Kd) wherein c represents the concentration of the radioisotope-labeled compound, and Kd represents the dissociation constant of the radioisotope-labeled compound with respect to the receptor determined by Scatchard's analysis. (Binding test on [^3H] prazosin)
To the receptor fraction of the cerebral cortex were added a test compound and about 0.2 nM of [^3H] prazosin and the resultant mixture was incubated at room temperature for 60 min. Next, it was filtered through a glass filter with the use of a cell harvester. After washing the glass filter with 50 mM Tris hydrochloride (pH 7.4), the radioactivity of the receptor was measured with a liquid scintillation counter. The binding detected in the presence of 10 μM of phentolamine was referred to as the nonspecific binding.

As to `CCN1CCN(c2nc(-c3ccc(OCCCO)cc3)cc3ccccc23)CC1.Cl.Cl` [Example 331, 1-(4-ethylpiperazin-1-yl)-3-[4-(3-hydroxypropoxy)phenyl]isoquinoline dihydrochloride], the melting point (usually the temperature, or range, at which the solid turns liquid) is 112 to 113 °C (dec.). In addition, the Ki at serotonin 1A receptor was 23.6 nM. The Ki on serotonin 2 receptor was found to be 5.9 nM. Moreover, at α1 adrenalin receptor, the Ki amounted to 722 nM.

As for `CCN1CCN(c2nc(-c3ccc(O)cc3)cc3ccccc23)CC1` [Example 7, 1-(4-ethylpiperazin-1-yl)-3-(4-hydroxyphenyl)isoquinoline], the melting point fell in the range of 204 to 206 °C. In addition, on serotonin 1A receptor, the Ki was found to be 27.9 nM. On serotonin 2 receptor, the Ki is 81.3 nM. Further, the Ki at α1 adrenalin receptor was found to be 521 nM.

As for `CCN1CCN(c2nc(C#CCc3ccccc3)cc3ccccc23)CC1` [Example 181, 1-(1-Ethylpiperazin-4-Yl)-3-(3-Phenyl-1-Propynyl)Isoquinoline Oxalate], the Ki was 17.9 nM at serotonin 1A receptor, 6.7 nM on serotonin 2 receptor and 920 nM on α1 adrenalin receptor.

Turning to `CCCNC(=O)c1ccc(-c2cc3ccccc3c(N3CCN(CC)CC3)n2)cc1` [Example 63, 1-(4-Ethylpiperazin-1-Yl)-3-(4-N-Propylaminocarbonylphenyl)Isoquinoline Hydrochloride], the Ki was 18.1 nM on serotonin 1A receptor, 0.84 nM at serotonin 2 receptor and 252 nM at α1 adrenalin receptor.

For the molecule `CCCCS(=O)(=O)Nc1ccc(-c2cc3ccccc3c(N3CCN(CC)CC3)n2)cc1` [Example 73, 3-(4-Butylsulfonylaminophenyl)-1-(4-Ethylpiperazin-1-Yl)Isoquinoline Hydrochloride], the Ki on serotonin 1A receptor turned out to be 13 nM; at serotonin 2 receptor it was 3.3 nM; at α1 adrenalin receptor it was 699 nM.

For the molecule `CCN1CCN(c2nc(-c3cnc(N4CCOCC4)s3)cc3ccccc23)CC1` [Example 173, 1-(1-ethylpiperazin-4-yl)-3-[2-(4-morpholinyl)-5-thiazolyl]isoquinoline dihydrochloride], the Ki at serotonin 1A receptor came out at 3.9 nM; at serotonin 2 receptor, 4.8 nM; at α1 adrenalin receptor it was 284 nM.

`CCN1CCN(c2nc(/C=C/c3ccccc3S(C)(=O)=O)cc3ccccc23)CC1.Cl` [Example 202, 3-[(E)-2-(2-Methylsulfonylphenyl)Ethenyl]-1-(4-Ethylpiperazin-1-Yl)Isoquinoline Hydrochloride]: the melting point is 146 to 149 °C. Further, at serotonin 1A receptor, the Ki was 14.6 nM. Also, the Ki at serotonin 2 receptor was 2.22 nM. Further, the Ki at α1 adrenalin receptor was over 2000 nM.

Take `CCN1CCN(c2nc(C#Cc3ccccc3OCCO)cc3ccccc23)CC1` [Example 187, 1-(1-Ethylpiperazin-4-Yl)-3-[2-(2-Hydroxyethoxylphenyl]Ethynylisoquinoline Oxalate]: the Ki was 9.81 nM on serotonin 1A receptor, 2.53 nM at serotonin 2 receptor and 969 nM at α1 adrenalin receptor.

In the case of `CCN1CCN(c2nc(-c3ccc(OCCO)cc3)cc3ccccc23)CC1` [Example 36, 1-(4-ethylpiperazin-1-yl)-3-[4-(2-hydroxyethoxy)phenyl]isoquinoline dihydrochloride], the results for the Ki on serotonin 1A receptor, on serotonin 2 receptor and on α1 adrenalin receptor were 18.8 nM, 3.9 nM and 1220 nM, respectively.

Take `CCN1CCN(c2nc(C#Cc3ccc(OCCO)cc3)cc3ccccc23)CC1` [Example 183, 1-(1-Ethylpiperazin-4-Yl]-3-[4-(2-Hydroxyethoxy)Phenylethynyl]Isoquinoline Dihydrochloride]: the Ki was found to be 14.1 nM on serotonin 1A receptor, 3.36 nM at serotonin 2 receptor and 577 nM at α1 adrenalin receptor.
